# Patent US20230346889A9, “TREATMENT OF ACUTE HEART FAILURE” (AnaCardio R&D AB, priority 2019, published 2023)
# Values joined by “and” are separate entries in the source; they are usually repeats but may differ in a detail not shown here. Equal values may be shown once. “Also recorded” adds a separate entry of the source.
# Tests used:
# rat HF models = conditions: cited from earlier work
# [1] = tested on: intracellular cAMP concentration; experiment: cAMP measurement in cardiomyocytes (direct immunoassay kit); format: cell-based, mouse; conditions: vs placebo
# Protocol: The intracellular cAMP concentration was measured using the cAMP direct Immunoassay kit (Abcam ab65355). Briefly, frozen cardiomyocytes pellets from groups described above (Placebo, Ghrelin, D-Lys 3 GHS-R1a+Ghrelin) were homogenized on ice using volume of 0.1 M HCl to obtain a protein concentration of 1 mg/ml. Acetylated supernatants of samples were used for the incubation with antibodies in ELISA plates according to the kit manufacturer. Finally, the optic density absorbance at 450 nm was analyzed using a microplate reader (Biotek, Synergy 2). The concentration of cAMP was normalized, dividing the resulting readout (pmol/ml) by the total protein concentration (mg/ml) for each sample. The experiments were conducted by an operator blinded regarding the treatment of the animals.
# [2] = tested on: isolated cardiomyocytes from SHAM and HF mice; experiment: Cytosolic Ca2+ transients and cell shortening in isolated cardiomyocytes; format: cell-based, mouse; conditions: for cardiomyocyte fractional shortening (FS): 15 min ghrelin exposure, 100 nM, sham and post-MI HF mice; for cardiomyocyte Ca2+ transients (amplitude): SHAM and HF mice, vs placebo
# Description: Twelve-week old C57BL6 mice were anesthetized with gas mixture of oxygen and isoflurane (2-3%). Myocardial infarction (MI) was induced in mice by permanent ligation of the left coronary artery, as previously described (Perrino et al., 2013). Briefly, mice underwent thoracotomy and subsequent left coronary ligation; ˜80% survived during the follow-up period (4-6 weeks). SHAM-operated animals underwent the same procedure without coronary artery ligation (SHAM). At study termination, after sedation, mice were euthanized through cervical dislocation.
# After euthanasia, single cardiomyocytes were isolated from the left and right ventricles (mouse hearts are dominated by left ventricles) and atria were excluded, following the protocols developed by the Alliance for Cellular Signalling (AfCS Procedure Protocol ID PP00000 125) as previously described (Pironti et al., 2016).
# Mouse cardiomyocytes were incubated with a cell permeable form of fluorescent indicators Fluo-3 AM followed by washing for >5 min as previously described (Andersson et al., 2011). Cardiomyocytes were plated on laminin coated glass bottom dishes. The dishes were placed in a custom built perfusion/stimulation chamber and continuously perfused with O2/CO2 (95/5%) bubbled Tyrode solution with the following composition (in mM): NaCl 121, KCl 5.0, CaCl2 1.8, MgCl2 0.5, NaH2PO4 0.4, NaHCO3 24, EDTA 0.1, glucose 5.5. The cardiomyocytes were stimulated to contract using an electrical field between two platinum electrodes attached to the perfusion/stimulation chamber. […] Fluorescence was measured using a confocal microscope Bio-Rad MRC 1024 unit attached to a Nikon Diaphot inverted microscope (40-60×oil immersion lenses). Confocal images were analyzed off line using ImageJ (National Institutes of Health; available at http://rsb.info.nih.gov/ij). Line scan confocal images were obtained from paced cardiomyocytes with the line scan running along the long axis of the cell. Changes in the emitted fluorescence, representing changes in free cytoplasmic Ca^2+, were quantified. The amplitude of Ca^2+ transients was measured as the change in the fluo-3 fluorescence signal (F) divided by the fluorescence immediately before a stimulation pulse given under control conditions (FO). Ca^2+ transient decay time constant (Tau) was quantified by fitting the decay to an exponential decay function in the GraphPad Prism software (La Jolla, Ca, USA). Fractional cell shortening was calculated from the line scan images as the fractional change in the cell length at rest and during maximal contraction.
# The myocytes were superfused with physiological buffer (Tyrode solution) or for the pharmacological experiments Tyrode+Ghrelin (100 nM) or D-Lys 3 (D-Lys 3 GHS-R1a antagonist 3 μM). All cells were perfused for 15 min with respective solution before measurements, except in some experiments where D-Lys 3 (3 μM) was introduced in perfusion system 10 minutes before adding Ghrelin. All experiments were performed at room temperature (˜24° C.).
# The myocytes were superfused with physiological buffer (Tyrode solution) with or without Ghrelin (Bachem, Bubendorf, Switzerland) (100 nM). All cardiomyocytes were superfused for 15 min with respective solution before measurements. An antagonist against the ghrelin receptor GHS-r1a (D-Lys 3; 3 μM), was used in some experiments. In those experiments, D-Lys 3 was introduced in superfusion system 10 minutes before adding Ghrelin.
# [3] = tested on: dogs with acute myocardial infarction; conditions: US2004014671A1; cited from earlier work
# [4] = tested on: patients with advanced CHF and reduced EF; experiment: Trial safety and clinical outcomes (hypotension, arrhythmia, ischemia, symptoms, events); format: in vivo, human
# Protocol: Safety outcomes included reduction in systolic blood pressure, hypotension, and symptomatic hypotension, prolongation of the QTc, ischemia, and arrhythmia during or after infusion, and clinical outcomes.
# The following symptoms were assessed as yes or no prior to infusion and after 30, 60, 120 min and 30 min after infusion and at the 2-5 days follow-up; headache, dizziness, dyspnea, central chest pain, flush, sleepiness, upset stomach and other symptoms. The following signs were recorded prior to start of infusion and after lunch; rales, peripheral oedema, jugular venous distension, hepatomegaly and S3 gallop.
# Hypotension was assessed in two ways: The difference in change in blood pressure between the groups was quantified, and hypotension in any one patient was defined as a drop of systolic blood pressure of >20 mm Hg or to <80 mm Hg.
# The difference in change in heart rate between the groups was quantified. Bradycardia was defined as a reduction in heart rate of >15 beats per minute, to a heart rate <40 beats per minute, an increase in PQ time by >20 ms, or AV block II-III. In individual patients, tachycardia was defined as an increase in heart rate by >10 beats per minute or heart rate >110 beats per minute. Ventricular extraystoles were quantified and ventricular tachycardia was defined as non-sustained if ≥3 beats in a row up to ≤30 seconds, and sustained if >30 seconds. Supra-ventricular arrhythmia was defined as ectopic atrial tachycardia, atrial flutter or atrial fibrillation, or AV-nodal tachycardia of >3 seconds duration. Ghrelin may […] hERG channels and as such cause a prolongation of the QTc interval on the EKG, which theoretically could predispose to arrhythmia. Therefor we monitored QTc.
# Ischemia was assessed in two ways: The difference in change in troponin T between the groups was quantified, and ischemia in any one patient was defined as symptoms of ECG changes consistent with ischemia, or a rise in troponin T of >50%.
# Patients were followed in the medical record until 30 Apr. 2017. Outcomes were freedom from all-cause death; all cause death or HF hospitalization; all cause death or heart transplantation or left ventricular assist device, and a combination of all these.
compound,measurement,setting,value
CCCCCCCC(=O)OC[C@H](NC(=O)[C@H](CO)NC(=O)CN)C(=O)N[C@@H](Cc1ccccc1)C(=O)N[C@@H](CC(C)C)C(=O)N[C@@H](CO)C(=O)N1CCC[C@H]1C(=O)N[C@@H](CCC(=O)O)C(=O)N[C@@H](Cc1cnc[nH]1)C(=O)N[C@@H](CCC(N)=O)C(=O)N[C@@H](CCCNC(=N)N)C(=O)N[C@H](C(=O)N[C@@H](CCC(N)=O)C(=O)N[C@@H](CCC(N)=O)C(=O)N[C@@H](CCCNC(=N)N)C(=O)N[C@@H](CCCCN)C(=O)N[C@@H](CCC(=O)O)C(=O)N[C@@H](CO)C(=O)N[C@@H](CCCCN)C(=O)N[C@@H](CCCCN)C(=O)N1CCC[C@H]1C(=O)N1CCC[C@H]1C(=O)N[C@@H](C)C(=O)N[C@@H](CCCCN)C(=O)N[C@@H](CC(C)C)C(=O)N[C@@H](CCC(N)=O)C(=O)N1CCC[C@H]1C(=O)N[C@@H](CCCNC(=N)N)C(=O)O)C(C)C [Ghrelin],CO and fractional shortening,"rat HF models; rat HF models (Nagaya et al., 2001d)",increased CO and fractional shortening
same,cardiac sympathetic activity and LV remodeling,rat HF models; rat myocardial infarction models,reduced cardiac sympathetic activity and left ventricular (LV) remodeling
same,cAMP concentration in cardiomyocytes,[1],reduces
same,cAMP concentration in cardiomyocytes,[1]; listed as ghrelin,lower compared to placebo
same,kinetics of Ca2+ transients (ROI and Tau),[2],did not affect
same,cardiomyocyte fractional shortening (FS),[2],increases contractility
same,cardiomyocyte fractional shortening (FS),[2]; listed as ghrelin,increased compared to placebo
same,cardiomyocyte Ca2+ transients (amplitude),[2],did not differ
same,cardiomyocyte Ca2+ transients (amplitude),[2]; listed as ghrelin,not different; also recorded: no difference
same,improvement of CO,[3],not
same,troponin T in the one patient with >50% increase,[4]; Baseline,31 ng/L
same,patients with flush,"[4]; at 60 min, vs. 0 placebo, p=0.006",7
same,troponin T in the one patient with >50% increase,[4]; at FU,164 ng/L
same,incidence of hypotension,[4]; drop of systolic BP >20 mm Hg or to <80 mm Hg,no incidence of hypotension; also recorded: no events of hypotension or symptomatic hypotension
same,troponin T in the one patient with >50% increase,[4]; during infusion (successive samples),38 ng/L and 42 ng/L and 43 ng/L and 34 ng/L
same,patients with a >50% increase in troponin T,[4]; ghrelin group (n = 15),One
same,effect on heart rate,"[4]; human, in vivo",no effect
same,incidence of ventricular tachy or brady arrhythmias,"[4]; human, in vivo",no effect
same,symptoms or EKG changes consistent with ischemia,"[4]; human, in vivo",no symptoms or EKG changes consistent with ischemia
same,clinical events vs placebo,[4]; over 90 days follow-up,no differences in clinical events
